# Where a SMILES comes first, the peptide text is derived from it. [ ]: non-standard residue; d: D form. The star is where a group is joined. Orn(α-tetramethylguanidino) = CN(C)C(=N[C@@H](CCCN)C(=O)*)N(C)C; Orn = NCCC[C@H](N)C(=O)O
# Legend:
# [1] = system: E. coli DSM 1103 (ATCC 25922); type: cell-based, Escherichia coli; details: DSM 1103, 24 h
# Experimental: (§1) MICs of P. aeruginosa strains DSM 1117 (ATCC 27853), DSM 3227 (ATCC 19429), and DSM 9644 were determined in a microdilution broth assay using 50 or 100% MHB (11.5 and 23 g/L MHB, respectively) whereas MICs of E. coli DSM 1103 (ATCC 25922) and K. pneumoniae DSM 681 (ATCC 10031) were determined in TSB (30 g/L TSB). Peptides (1 g/L in water) were serially two-fold diluted in a 96-well microtiter plate (PS, sterile, flat bottom) in 50 μL of the corresponding medium to final concentrations of 512–4 μg/mL. Bacteria were grown in nutrient broth overnight and diluted to a cell concentration of 1.5 × 10^7 cells/mL in the corresponding medium. Cell densities were determined by using the McFarland standard as reference. An aliquot (50 μL) of the cell culture was added to each well and incubated (37°C, 24 h). The OD595 was determined in a SpectraMax 340PC (Molecular Devices, Sunnyvale, USA). Additionally, MIC values were also determined for high bacteria densities (5 × 10^8 cells/mL) corresponding to the conditions used for TEM, as described above.
# [2] = system: K. pneumoniae DSM 681 (ATCC 10031); type: cell-based, Klebsiella pneumoniae; details: DSM 681, 24 h
# Experimental: as §1
# [3] = system: P. aeruginosa DSM 1117 (ATCC 27853); set-up: method as in Bluhm et al., 2015; details: 50% MHB; ref Bluhm et al., 2015; cited from earlier work
# HeLa cells = test: in vitro; type: cell-based; details: 24 h
# Experimental: (§2) Human embryonic kidney (HEK293) and HeLa cells were cultured in Dulbecco's modified Eagle's/Ham's F-12 medium [DMEM/F-12 (1:1)] supplemented with FBS (10% v/v), penicillin, and streptomycin (1000 units each). Primary rat cardiomyocytes (Innoprot, Elexalde Derio, Spain) were grown in medium supplemented with FBS (20% v/v), horse serum (5% v/v), L-glutamine (2 mmol/L), sodium pyruvate (2 mmol/L), MEM non-essential amino acids (Gibco, 0.1 mmol/L), penicillin, and streptomycin (1000 units each). Surfaces for cardiomyocyte growth were coated with attachment factor first. Cells (20,000/well) were seeded into a 96-well plate (PS, sterile, flat bottom), incubated for 24 h (37°C, 5% CO2), and washed twice with PBS (100 μl/well) prior to adding colorless medium (88 μL) and peptide solution (12 μL; 5, 2.5, 1.25, […], and 0.625 g/L in PBS). Positive controls were triton X-100 (1%, v/v) and melittin (60 mg/L) as lytic peptide, whereas PBS (12%, v/v) served as negative control. After an incubation period of 24 h, supernatant (25 μL) was mixed with lactate dehydrogenase (LDH) substrate (175 μL; 0.57 mmol/L sodium pyruvate, 0.24 mmol/L NADH disodium salt, 32 mmol/L potassium dihydrogen phosphate, 66 mmol/L dipotassium phosphate) in 96-well plates (PS, sterile, flat bottom). Absorbance was recorded at 340 nm every 3 min for 30 min on the Paradigm microplate reader. Due to the total release of LDH upon triton X-100 treatment, the control contained high LDH concentrations resulting in a fast substrate turnover that was only linear for the first 6 min.
# (§3) The MTT cell viability assay relied on the same cell culture. Remaining medium was replaced by a mixture of fresh colorless medium (100 μL) and MTT (10 μL; 5 g/L in PBS) and incubated for 4 h (37°C, 5% CO2). A solution of sodium dodecyl sulfate (100 μL; 10%, w/v) dissolved in hydrochloric acid (10 mmol/L) was added, incubated (16 h), and the absorbance recorded at 590 nm relative to the reference at 650 nm (Paradigm microplate reader). The relative cell viability was calculated by [(ODPeptide − ODTriton)/(ODPBS − ODTriton)] × 100% and half-maximal inhibitory concentrations (IC50) with an Excel-template from cell biology protocols (www.sciencegateway.org/ protocols/cellbio/drug/hcic50.htm). For statistical analysis an unpaired t-test was applied using GraphPad Prism 5.0.
# in vitro [4] = details: mouse, mouse serum, Half-life time mouse serum, 37°C
# Experimental: Peptide solutions (1 g/L) were added to mouse serum to obtain final concentrations of 70 mg/L peptide and incubated under constant shaking at 37°C. After 0, 1, 2, 3, and 6 h aliquots (95 μL) were precipitated with aqueous TCA (25 μL, 15% w/v), incubated for 10 min on ice, and centrifuged (5 min, 12,000 × g, Eppendorf mini spin centrifuge). An aliquot of the supernatant (95 μL) was neutralized with sodium hydroxide (8 μL, 1 mol/L) and diluted with aqueous acetonitrile solution (3% acetonitrile, 0.1% TFA; 200 μL). Peptides were quantified by the peak areas obtained by analytical RP-HPLC on a Jupiter C18-column (ID: 2 mm) using a linear aqueous acetonitrile gradient with 0.1% (v/v) TFA (absorbance recorded at 214 nm). Peak areas of all time points were normalized to the initial peak area obtained after “0 min incubation” (= 100%). Experiments were carried out as triplicates in parallel and half-life times were calculated using GraphPad Prism 5.0.
# HEK293 cells = test: in vitro; type: cell-based, human; details: 24 h
# Experimental: as §2, §3
# [5] = system: Primary rat cardiomyocytes; test: in vitro; type: cell-based; details: 24 h
# Experimental: as §2, §3
# in vitro [6] = type: cell-based; details: human
# Experimental: as §2, §3
# in vitro [7] = type: cell-based, human; details: human
# Experimental: as §2, §3
# P. aeruginosa elastase [8] = molecular target: T1, P. aeruginosa elastase (Pseudomonas aeruginosa, UniProt P14756); test: Elastase assay (proteolytic stability); type: in vitro ADME; details: Pseudomonas aeruginosa; 0.5 g/L peptide, elastase 12 units/mL, Tris-HCl pH 8.3, 37°C; read-out: Half-life time with Pseudomonas elastase
# T1 construct: purchased Merck (Darmstadt, Germany)
# Experimental: A stock solution of P. aeruginosa elastase (0.26 U/μL) was prepared in Tris-HCl (5 mmol/L, pH 8.3) and stored at −80°C. Peptides (0.5 g/L in 5 mmol/L Tris-HCl, pH 8.3) were incubated with elastase (0.012 U/μL) at 37°C under constant shaking (450 rpm) for 0, 0.5, 2, 4, and 6 h. Aliquots (10.5 μL) were precipitated with a mixture of acetonitrile and ethanol (1:1 v/v) containing 0.1% TFA (21 μL), centrifuged, the supernatant transferred into a new tube, and dried in vacuum. Samples were dissolved in aqueous acetonitrile (3% v/v) containing TFA (0.1% v/v) and analyzed by RP-HPLC using the conditions described above.
# P. aeruginosa elastase [9] = test: P. aeruginosa elastase (0.012 U/μL) in Tris-HCl (5 mmol/L, pH 8.3); details: 37°C, up to 6 h
# T1 sequence (P14756 198-498): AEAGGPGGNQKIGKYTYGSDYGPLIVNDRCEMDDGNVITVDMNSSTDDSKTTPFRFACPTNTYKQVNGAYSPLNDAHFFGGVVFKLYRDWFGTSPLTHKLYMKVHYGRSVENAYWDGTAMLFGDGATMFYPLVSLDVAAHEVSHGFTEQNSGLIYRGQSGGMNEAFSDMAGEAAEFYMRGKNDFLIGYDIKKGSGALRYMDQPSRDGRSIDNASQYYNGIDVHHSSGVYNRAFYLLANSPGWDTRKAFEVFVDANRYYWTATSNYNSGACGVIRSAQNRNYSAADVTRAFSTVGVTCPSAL
compound,measurement,setting,value
"CC[C@H](C)[C@H](NC(=O)[C@H](CCCN)N=C(N(C)C)N(C)C)C(=O)N[C@@H](CCCN)C(=O)N[C@@H](CCCNC(=N)N)C(=O)N1CCC[C@H]1C(=O)N[C@H](C(=O)N[C@@H](Cc1ccc(O)cc1)C(=O)N[C@@H](CCCN)C(=O)N1CCC[C@H]1C(=O)N[C@@H](CCCNC(=N)N)C(=O)N1CCC[C@H]1C(=O)N[C@@H](CCCNC(=N)N)C(=O)N1CCC[C@H]1C(=O)N1CCC[C@H]1C(=O)N[C@@H](Cc1c[nH]cn1)C(=O)N1CCC[C@H]1C(=O)N[C@@H](CCCNC(=N)N)C(=O)N[C@@H](CC(C)C)C(=O)O)C(C)C [Api755, gu-OIORPVYOPRPRPPHPRL-OH, reference compound] ({Orn(α-tetramethylguanidino)}-I[Orn]RPVY[Orn]PRPRPPHPRL-OH)",MIC E. coli ATCC 25922,[1],8 µg/mL
same,MIC K. pneumoniae DSM 681,[2],8 µg/mL
same,times more active than Api137 against P. aeruginosa,[3],16
"CC(C)C[C@H](NC(=O)[C@H](CCCNC(=N)N)NC(=O)[C@@H]1CCCN1C(=O)[C@H](Cc1c[nH]cn1)NC(=O)[C@@H]1CCCN1C(=O)[C@@H]1CCCN1C(=O)[C@H](CCCNC(=N)N)NC(=O)[C@@H]1CCCN1C(=O)[C@H](CCCNC(=N)N)NC(=O)[C@@H]1CCCN1C(=O)[C@H](CCCN)NC(=O)[C@H](Cc1ccc(O)cc1)NC(=O)[C@@H](NC(=O)[C@@H]1CCCN1C(=O)[C@H](CCCNC(=N)N)NC(=O)[C@H](CCCN)NC(=O)[C@H](Cc1c[nH]c2ccccc12)NC(=O)[C@H](CCCN)N=C(N(C)C)N(C)C)C(C)C)C(=O)O [Api760, gu-OWORPVYOPRPRPPHPRL-OH, reference compound] ({Orn(α-tetramethylguanidino)}-W[Orn]RPVY[Orn]PRPRPPHPRL-OH)",MIC E. coli ATCC 25922,[1],8 µg/mL
same,MIC K. pneumoniae DSM 681,[2],8 µg/mL
same,times more active than Api137 against P. aeruginosa,[3],16
"CC(C)C[C@H](NC(=O)[C@H](CCCNC(=N)N)NC(=O)[C@@H]1CCCN1C(=O)[C@H](Cc1c[nH]cn1)NC(=O)[C@@H]1CCCN1C(=O)[C@@H]1CCCN1C(=O)[C@H](CCCNC(=N)N)NC(=O)[C@@H]1CCCN1C(=O)[C@H](CCCNC(=N)N)NC(=O)[C@@H]1CCCN1C(=O)[C@H](CCCN)NC(=O)[C@H](Cc1ccc(O)cc1)NC(=O)[C@@H](NC(=O)[C@@H]1CCCN1C(=O)[C@H](CCCNC(=N)N)NC(=O)[C@H](CCCN)NC(=O)[C@H](Cc1c[nH]c2ccccc12)NC(=O)[C@H](CCCN)NC(=O)[C@H](Cc1c[nH]c2ccccc12)NC(=O)[C@H](CCCN)N=C(N(C)C)N(C)C)C(C)C)C(=O)O [Api793, guO(WO)2RPVYOPRPRPPHPRL] ({Orn(α-tetramethylguanidino)}-W[Orn]W[Orn]RPVY[Orn]PRPRPPHPRL-OH)",MIC E. coli ATCC 25922,[1],8 µg/mL
same,MIC K. pneumoniae DSM 681,[2],16 µg/mL
same,IC50 on cell viability,HeLa cells,640 ± 150 µg/mL
same,half-life at 70 mg/L,in vitro [4],4.1 h
same,IC50 on cell viability,HEK293 cells,640 ± 50 µg/mL
same,IC50 on cell viability,[5],>600 µg/mL
"CC[C@H](C)[C@H](NC(=O)[C@H](CCCN)N=C(N(C)C)N(C)C)C(=O)N[C@@H](CCCN)C(=O)N[C@H](C(=O)N[C@@H](CCCN)C(=O)N[C@H](C(=O)N[C@@H](CCCN)C(=O)N[C@@H](CCCNC(=N)N)C(=O)N1CCC[C@H]1C(=O)N[C@H](C(=O)N[C@@H](Cc1ccc(O)cc1)C(=O)N[C@@H](CCCN)C(=O)N1CCC[C@H]1C(=O)N[C@@H](CCCNC(=N)N)C(=O)N1CCC[C@H]1C(=O)N[C@@H](CCCNC(=N)N)C(=O)N1CCC[C@H]1C(=O)N1CCC[C@H]1C(=O)N[C@@H](Cc1c[nH]cn1)C(=O)N1CCC[C@H]1C(=O)N[C@@H](CCCNC(=N)N)C(=O)N[C@@H](CC(C)C)C(=O)O)C(C)C)[C@@H](C)CC)[C@@H](C)CC [Api796, GuO(IO)3RPVYOPRPRPPHPRL] ({Orn(α-tetramethylguanidino)}-I[Orn]I[Orn]I[Orn]RPVY[Orn]PRPRPPHPRL-OH)",MIC E. coli ATCC 25922,[1],8 µg/mL
same,MIC K. pneumoniae DSM 681,[2],16 µg/mL
same,"viability at 24 h, 0.6 g/L",in vitro [6],61 ± 14%
same,IC50 on cell viability,HeLa cells,>600 µg/mL
same,half-life at 70 mg/L,in vitro [4],4.15 h
same,"viability at 24 h, 0.6 g/L",in vitro [7],~60%
same,IC50 on cell viability,HEK293 cells,>600 µg/mL
same,IC50 on cell viability,[5],>600 µg/mL
"CC[C@H](C)[C@H](NC(=O)[C@H](CCCCN)NC(=O)[C@H](CCC(=O)O)NC(=O)[C@H](CCCCN)NC(=O)[C@H](CO)NC(=O)[C@H](CCCCN)NC(=O)[C@H](CCCNC(=N)N)NC(=O)[C@H](Cc1ccccc1)NC(=O)[C@H](Cc1ccccc1)NC(=O)[C@H](CC(=O)O)NC(=O)CNC(=O)[C@H](CC(C)C)NC(=O)[C@@H](N)CC(C)C)C(=O)NCC(=O)N[C@@H](CCCCN)C(=O)N[C@@H](CCC(=O)O)C(=O)N[C@@H](Cc1ccccc1)C(=O)N[C@@H](CCCCN)C(=O)N[C@@H](CCCNC(=N)N)C(=O)N[C@H](C(=O)N[C@H](C(=O)N[C@@H](CCC(N)=O)C(=O)N[C@@H](CCCNC(=N)N)C(=O)N[C@H](C(=O)N[C@@H](CCCCN)C(=O)N[C@@H](CC(=O)O)C(=O)N[C@@H](Cc1ccccc1)C(=O)N[C@@H](CC(C)C)C(=O)N[C@@H](CCCNC(=N)N)C(=O)N[C@@H](CC(N)=O)C(=O)N[C@@H](CC(C)C)C(=O)N[C@H](C(=O)N1CCC[C@H]1C(=O)N[C@@H](CCCNC(=N)N)C(=O)N[C@H](C(=O)N[C@@H](CCC(=O)O)C(=O)N[C@@H](CO)C(=O)O)[C@@H](C)O)C(C)C)[C@@H](C)CC)C(C)C)[C@@H](C)CC [LL-37, reference compound]",half-life at 0.5 g/L,P. aeruginosa elastase [8],3 min
gu-O(IO)2RPVYOPRPRPPHPRL-OH,not cleaved,P. aeruginosa elastase [9],92 ± 4% detected after 30 min and for all later time points (6 h)
gu-ONNRPVYIPRPRPPHPRL-OH,not cleaved,P. aeruginosa elastase [9],fully recovered after an incubation period of 6 h

# Reference: PMC4861708 (Frontiers in Cell and Developmental Biology, 2016)
